According to patent US20210113540A1, “TREATMENT AGENT AND PHARMACEUTICAL COMPOSITION FOR GLIOMA” (NATIONAL UNIVERSITY CORPORATION HOKKAIDO UNIVERSITY, priority 2018, published 2021):

Experiments:
E16 cells = experiment: Quantitative determination of metabolites by LC-MS/MS in E16 cells; type: cell-based, human; parameters: dose or concentration left out as unconfirmed; conditions: 24 hours
Procedure: (§1) Compound 8 was added to GICs (E6, E16) at […] and treated for 24 hours. Cells were washed with a 5% mannitol solution, 70% ice-cold methanol was added, and metabolites were extracted. […] In addition, the amount of orotic acid was decreased in E16 cells.

GICs = experiment: Neutralization of GIC-damaging activity by addition of UDP-GlcNAc; type: cell-based, human; conditions: UDP-GlcNAc added after the chemical, FIG. 4
Procedure: When UDP-GlcNAc was added after the chemical was added to GIC, reduced SOX2 expression in GICs and the cytotoxic activity of Compound 8 on GICs were neutralized (FIGS. 3 and 4). SOX2 K75A in which lysine 75 involved in the binding of CRM1 and SOX2 was substituted with alanine and SOX2 S248A in which the 0-GlcNAcylation target serine 248 was substituted with alanine were prepared, thereby establishing GICs that constitutively express these SOX2 mutants and wild-type SOX2 (SOX2 wt). After treatment with Compound 8, the localization of SOX2 was examined by immunostaining using an anti-FLAG antibody, and the viability of GICs expressing these mutants was examined by MTT assay (FIG. 5). In the presence of Compound 8, SOX2 K75A was present in the nucleus and partially neutralized the cytotoxic activity of Compound 8. SOX2 S248A was not retained in the nucleus by treatment with Compound 8, and no inhibitory effect on cytotoxic activity was observed. […] The SOX2/DAPI positive rate was as follows: GIC (E6): Control: 0%, SOX2 wt: 36±5%, SOX2 K75A: 63±5%, SOX2 S248A: 18±2%; GIC (E16): Control: 0%, SOX2 wt: 22±4%, SOX2 K75A: 58±6%, SOX2 S248A: 15±3%. Error bar: ±SD. Statistical processing is t-test. *P<0.05, **P<0.01, ***P<0.001. GIC was cultured for 2 days with Compound 8 (10 μmol/L) alone or together with UDP-GlcNAc (1 mmol/L), and immunostaining was performed for SOX2 and NESTIN. […]

[1] = test system: Temozolomide-resistant E6 (E6R); experiment: Xenograft model, subcutaneous E6R in NOD/SCID mice; type: in vivo
Procedure: Temozolomide-resistant E6 (E6R, 1×10^6) was subcutaneously transplanted into NOD/SCID mice (n=6), and Compound 8 (1.0 mg/kg) was orally administered for 11 consecutive days after the long diameter and short diameter of tumor became 5 to 6 mm. […] The size of tumor was calculated as (long diameter)×(short diameter)^2/2. Tumors were excised from Compound 8 treated mice and control mice on Day 12 from the start of oral administration of Compound 8 and fixed with 4% paraformaldehyde, followed by preparation of frozen sections. As a result, tumor cell aggregates disappeared by treatment with Compound 8.

recombinant human DHODH = target: T1, recombinant human DHODH (Homo sapiens, UniProt Q02127); experiment: DHODH enzyme assay (DCIP quenching); type: biochemical; conditions: pH 8.0, DCIP absorbance 600 nm, 50 minutes; read-out: DHODH enzyme inhibition IC50
T1 construct: DHODH, 31-395aa, Human, His tag, E. coli, ATGP1615; His tag; purchased ATGen ATGP1615; host or cells: E. coli
T1 sequence (Q02127 31-395): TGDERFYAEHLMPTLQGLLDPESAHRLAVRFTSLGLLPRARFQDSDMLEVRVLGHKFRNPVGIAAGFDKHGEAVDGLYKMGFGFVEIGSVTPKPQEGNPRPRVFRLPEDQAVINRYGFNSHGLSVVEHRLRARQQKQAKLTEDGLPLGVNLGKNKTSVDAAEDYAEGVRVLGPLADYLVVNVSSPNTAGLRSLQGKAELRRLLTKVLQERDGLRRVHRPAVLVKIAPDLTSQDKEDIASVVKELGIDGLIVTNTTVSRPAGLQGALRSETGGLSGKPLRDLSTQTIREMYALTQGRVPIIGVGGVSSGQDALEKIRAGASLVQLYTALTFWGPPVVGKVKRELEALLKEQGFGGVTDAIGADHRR
Procedure: For DHODH enzyme assay, “Benjamin Bader, Wolfgang Knecht, Markus Fries, and Monika Löffler. Expression, Purification, and Characterization of Histidine-Tagged Rat and Human Flavoenzyme Dihydroorotate Dehydrogenase. Protein Expression and Purification, 1998, 13, 414-422” was referred to.
DHODH activity was evaluated using an enzyme assay system that couples with an assay in a blue-coloring dye 2,6-dichlorophenol indophenol (DCIP, MP BIOMEDICALS, MP150118) quenching assay. Purified recombinant human DHODH (DHODH, 31-395aa, Human, His tag, E. coli, ATGP1615) was purchased from ATGen. […] Enzyme activity was assessed by measuring the decrease in DCIP absorbance (600 nm) for 50 minutes using an Envision plate-reading spectrophotometer (PerkinElmer Co., Ltd.). […]
Enzyme reaction inhibition rate (%)=(Amount of luminescence from wells supplemented with test compound)/(Amount of luminescence from wells supplemented with DMSO)×100

GICs (E6, E16) = experiment: Quantitative determination of metabolites by LC-MS/MS in GICs; type: cell-based, human; parameters: amounts of purine metabolites (ATP, GTP, dATP, dGTP): dose or concentration left out as unconfirmed; conditions: 24 hours
Procedure: as §1

E6 cells = experiment: Quantitative determination of metabolites by LC-MS/MS in E6 cells; type: cell-based, human; parameters: dose or concentration left out as unconfirmed; conditions: 24 hours, compared to control DMSO-treated group
Procedure: as §1

[2] = 1.0 mg/kg orally, tumors excised on Day 12

O=C(O)c1cc(C2CC2)cnc1Nc1ccc2c(ccn2-c2ccccc2)c1 [Compound 8, 5-cyclopropyl-2-((1-phenyl-1H-indole-5-yl)amino)nicotinic acid]
amount of orotic acid in E16 cells (E16 cells): decreased
increase of the amount of DHO in E16 cells (E16 cells; compared to control DMSO-treated group): 125 fold
cytotoxic activity of Compound 8 on GICs when UDP-GlcNAc was added (GICs): neutralized
tumor growth (size of tumor) ([1]; 1.0 mg/kg orally for 11 consecutive days, FIG. 2): reduced tumor growth
SOX2 in the mouse tumor tissue [1, 2]: disappearance of SOX2
tumor cell aggregates in excised tumor sections [1, 2]: disappeared
IC50 (recombinant human DHODH): 8.96 nM
amounts of pyrimidine metabolites downstream of orotic acid (UMP, UDP, UTP, CMP, CDP, CTP, dCTP, dTTP) (GICs (E6, E16); 10 M): reduced
amounts of purine metabolites (ATP, GTP, dATP, dGTP) (GICs (E6, E16)): remained unchanged
increase of the amount of DHO in E6 cells (E6 cells): 596 fold
